Marks after values point to notes of the source that are not given here.
Columns and labels:
Type in all cases: in vivo, mouse
[1] = test system: KK-A^y/Ta Jcl mice; test: Plasma TC, TG, blood-sugar, IRI and IRG levels 3 hours subsequent to the glucose-loading test (Example 1); conditions: 3 hours subsequent to glucose-loading test, after 14 days 30 mg/kg p.o.
Experimental: (§1) As from Day 14 afterwards, the animals after being fasted for 18 hours or more were loaded orally with a glucose solution (2 g/kg, 10 mL/kg), whereby the blood-sugar levels were measured before, and 120 min. after, the said glucose loading. Each of the compounds was given orally to the animals 3 hours prior to the glucose loading, and the whole blood was drawn from each of the animals under anesthesia. Each of the said blood samples was centrifuged to yield a blood plasma, and the resultant blood plasmas were all preserved under freezing in a ultra-low-temperature freezer for subsequent use in the below-described measurements.
(§2) The blood-sugar level, total cholesterol level (hereinafter referred to briefly as “TC level”) and triglyceride level (hereinafter referred to briefly as “TG level”) were detected individually in accordance with the hexokinase/G-6-PDH method, enzyme method and GPO/HDAOS method, and measured with use of Biochemical Auto-Analyzer (Model AU 400, manufactured by Olympus Co. of Japan). The plasma insulin level (hereinafter referred to briefly as “IRI level”) and the plasma glucagon level (hereinafter referred to briefly as “IRG level”) were detected individually with the ELISA method (Lebisinsulin Mouse Insulin Kit, produced by K.K. Shibayagi of Japan) and the ELISA method (YK090 Glucagon EIA Kit, produced by K.K. Yanaihara Kenkyuu-sho of Japan), followed by measurement with use of a plate reader (Immuno Mini NJ-2300, Nalge Nunc International K.K. of Japan).
(§3) The blood-sugar, TC, TG, IRI and IRG levels and the body weight were expressed as a mean value±standard deviation as calculated for each group of animals. With reference to the significance test between the group treated through administration of the medium and each group treated through administration of the compound, the F test was effected to analyze the data and then, the Student's t-test and Aspin-Welch's t-test were used in cases where the variance between the two groups was determined to be equal and unequal, respectively. Referring to the significance level, less than 5% (p<0.05) was considered significant, and the significance level was expressed as divided into the two events of less than 1% (**: p<0.01) and less than 5% (*: p<0.05).

[2] = test system: KK-A^y/Ta Jcl mice; test: Glucose loading test after repeated administration for 14 days (Example 1)
Experimental: as §1, §2, §3

[3] = test system: KK-A^y/Ta Jcl mice; test: Blood-sugar level after single and repeated oral administration (Example 1)
Experimental: On the day of initiation of administration (Day 1 of Administration), the obese/spontaneously type II diabetic mice; KK-A^y/Ta Jcl mice (male, 6-weeks aged, n=8) were treated through individual oral administration of the Test Compound 1 (ethyl N-allyl-N—[(E)-2-methyl-3-[4-(4-amidinophenoxycarbonyl)-phenyl]propenoyl]aminoacetate/methanesulfonate) of the present invention and the Control Compound 1 (5-{4-[2-(5-ethylpyridine-2-yl)ethoxy]benzyl}-1,3-thiazolidine-2,4-dione; pioglitazone) at the daily dose of 30 mg/kg, or the control medium (0.5% CMC), and blood was drawn from each animal through the orbital venous plexus 6 hours after administration. The blood-sugar levels were measured in accordance with the enzyme electrode method by use of Antosense II (manufactured by Daikin Kogyo KK of Japan). The said test was carried out while the animals were allowed free access to food and water.
Following the above-described single administration, the repeated, once-a-day forced oral administration of each compound was performed at the same daily dose for the total period of 14 consecutive days. On Days 3 and 11, blood was drawn in the same manner as described above 6 hours after administration of each compound, followed by measurement of the blood-sugar level.
as §3

[4] = test system: KK-A^y/Ta Jcl mice; test: Blood-sugar level, administration as admixture with food (Example 2)
Experimental: KK-A^y/Ta Jcl Mice (male, 6- to 7-weeks aged, the number of cases; 8 animals) were treated through individual administration, in the form of an admixture with a food, of the Test Compound 2 (N-allyl-N-{(2E)-3-[4-({4-[amino(imino)methyl]phenoxy}-carbonyl)phenyl]-2-methyl-2-propenoyl}glycine/dimethane-sulfonate) of the present invention and the Control Compound 1 (5-(4-[2-(5-ethylpyridine-2-yl)ethoxy]benzyl)-1,3-thiazolidine-2,4-dione; pioglitazone) at the daily dose of 16.8 mg/100 g-food for 7 consecutive days, whereby the control group was fed with an ordinary food alone.
Blood was drawn from the tail vein individually on the day (Day 1) preceding to administration of the Test Compound in the form of an admixture with a food, and on Days 2, 5, 7 and 14 of administration, and the blood samples were subjected to measurement of the blood-sugar level in accordance with the same procedure as described in Example 1, while, at the same time, the animals were weighed.

[5] = repeated once-a-day oral 30 mg/kg, 6 hours after administration

## CCc1ccc(CCOc2ccc(CC3SC(=O)NC3=O)cc2)nc1 (stereo not drawn) [Control Compound 1, 5-{4-[2-(5-ethylpyridine-2-yl)ethoxy]benzyl}-1,3-thiazolidine-2,4-dione, reference compound]
[1]
  Blood-sugar level: 289.9 ± 20.6 mg/dL
  IRG (plasma glucagon level): 488 ± 45.8 pg/mL
  IRI (plasma insulin level): 1.25 ± 0.28 ng/mL
  TC: 114.6 ± 4.8 mg/dL
  TG: 72.7 ± 4.7 mg/dL
[2]; after 14 days 30 mg/kg p.o., fasted, compound 3 hours prior to loading
  Blood-sugar level before glucose loading: 156.9 ± 5.3 mg/dL
[2]; after 14 days 30 mg/kg p.o., glucose 2 g/kg orally
  Blood-sugar level 120 Min. after glucose loading: 236.9 ± 19.6 mg/dL
[2]; after repeated administration for 14 consecutive days
  Blood-sugar lowering action in the glucose loading test vs medium control group (in words): not observed to produce any significant difference
[3]; Day 1, before single oral administration of 30 mg/kg (baseline)
  Blood-sugar level before administration: 440.6 ± 24.3 mg/dL
[3]; [5]
  Blood-sugar level Day 3: 224.4 ± 14.4 mg/dL
  Blood-sugar level Day 11: 220.3 ± 8.2* mg/dL
[3]; single administration 30 mg/kg, 6 hours after administration
  Blood-sugar lowering action vs control medium group (in words): failed to elicit any significant blood-sugar lowering action
[3]; single oral administration, 30 mg/kg
  Blood-sugar level 6 hrs. after administration: 287.9 ± 28.6 mg/dL
[4]; 16.8 mg/100 g-food admixture
  Blood-sugar level Day 2: 323.3 ± 15.7 mg/dL
  Blood-sugar level Day 5: 350.0 ± 13.6 mg/dL
  Blood-sugar level Day 7: 311.3 ± 19.4 mg/dL
  Blood-sugar level Day 14: 270.5 ± 10.8 mg/dL
[4]; day preceding administration (baseline), 16.8 mg/100 g-food group
  Blood-sugar level Day 1: 309.3 ± 21.2 mg/dL
